Assay results as given in ChEMBL document CHEMBL2384992, “Conformation constraint of anilides enabling the discovery of tricyclic lactams as potent MK2 non-ATP competitive inhibitors” (Bioorg Med Chem Lett, 2013).

Columns and labels:
[1] = target: Glycogen synthase kinase-3 beta (Homo sapiens, UniProt P49841); experiment: Inhibition of GSK3B (unknown origin)
[2] = target: Insulin-like growth factor 1 receptor (Homo sapiens, UniProt P08069); experiment: Inhibition of IGF1R (unknown origin)
[3] = target: Tyrosine-protein kinase JAK2 (Homo sapiens, UniProt O60674); experiment: Inhibition of JAK2 (unknown origin)
[4] = target: Epidermal growth factor receptor (Homo sapiens, UniProt P00533); experiment: Inhibition of EGFR (unknown origin)
Epidermal growth factor receptor, sequence (P00533 whole entry): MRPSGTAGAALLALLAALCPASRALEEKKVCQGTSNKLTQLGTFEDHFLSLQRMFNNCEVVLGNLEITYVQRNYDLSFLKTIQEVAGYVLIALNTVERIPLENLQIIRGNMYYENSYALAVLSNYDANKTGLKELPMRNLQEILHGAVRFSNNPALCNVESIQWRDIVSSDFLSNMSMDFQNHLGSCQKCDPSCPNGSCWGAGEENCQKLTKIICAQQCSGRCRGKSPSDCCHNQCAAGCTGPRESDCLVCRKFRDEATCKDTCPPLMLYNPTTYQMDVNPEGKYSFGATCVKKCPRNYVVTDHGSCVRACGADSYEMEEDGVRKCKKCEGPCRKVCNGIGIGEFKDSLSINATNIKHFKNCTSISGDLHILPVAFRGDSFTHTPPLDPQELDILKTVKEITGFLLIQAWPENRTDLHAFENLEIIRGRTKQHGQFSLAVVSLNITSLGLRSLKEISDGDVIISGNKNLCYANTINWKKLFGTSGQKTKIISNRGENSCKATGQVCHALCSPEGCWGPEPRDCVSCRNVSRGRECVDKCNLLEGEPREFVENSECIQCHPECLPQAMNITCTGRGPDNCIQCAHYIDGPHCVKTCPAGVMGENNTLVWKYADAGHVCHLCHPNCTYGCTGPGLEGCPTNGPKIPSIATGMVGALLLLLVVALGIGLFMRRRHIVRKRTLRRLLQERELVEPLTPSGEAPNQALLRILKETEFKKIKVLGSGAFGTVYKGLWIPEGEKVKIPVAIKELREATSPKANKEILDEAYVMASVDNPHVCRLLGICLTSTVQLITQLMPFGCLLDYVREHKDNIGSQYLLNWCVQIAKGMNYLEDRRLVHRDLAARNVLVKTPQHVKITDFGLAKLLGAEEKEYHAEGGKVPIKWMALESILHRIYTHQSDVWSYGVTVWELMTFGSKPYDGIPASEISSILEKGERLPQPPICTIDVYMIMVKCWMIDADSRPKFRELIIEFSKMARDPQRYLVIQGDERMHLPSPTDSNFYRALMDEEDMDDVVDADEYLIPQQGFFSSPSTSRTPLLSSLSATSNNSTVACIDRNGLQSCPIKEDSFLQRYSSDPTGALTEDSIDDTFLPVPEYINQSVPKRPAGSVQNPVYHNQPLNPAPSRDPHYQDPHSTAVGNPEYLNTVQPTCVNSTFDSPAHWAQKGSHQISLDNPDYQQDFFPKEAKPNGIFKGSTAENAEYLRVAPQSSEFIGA

[5] = target: Serine/threonine-protein kinase Chk1 (Homo sapiens, UniProt O14757); experiment: Inhibition of CHK1 (unknown origin)
[6] = target: Protein kinase C alpha type (Homo sapiens, UniProt P17252); experiment: Inhibition of PKCA (unknown origin)
[7] = target: MAP kinase-activated protein kinase 2 (Homo sapiens, UniProt P49137)
Description: Inhibition of MK2 (unknown origin) phosphorylation using TAMRA labeled peptide as substrate incubated 30 mins before substrate addition measured after 30 mins

[8] = target: Inhibitor of nuclear factor kappa-B kinase subunit beta (Homo sapiens, UniProt O14920); experiment: Inhibition of IKKB (unknown origin)
[9] = target: Rho-associated protein kinase 2 (Homo sapiens, UniProt O75116); experiment: Inhibition of ROCK2 (unknown origin)
[10] = target: Tyrosine-protein kinase Lck (Homo sapiens, UniProt P06239); experiment: Inhibition of LCK (unknown origin)
Tyrosine-protein kinase Lck, sequence (P06239 whole entry): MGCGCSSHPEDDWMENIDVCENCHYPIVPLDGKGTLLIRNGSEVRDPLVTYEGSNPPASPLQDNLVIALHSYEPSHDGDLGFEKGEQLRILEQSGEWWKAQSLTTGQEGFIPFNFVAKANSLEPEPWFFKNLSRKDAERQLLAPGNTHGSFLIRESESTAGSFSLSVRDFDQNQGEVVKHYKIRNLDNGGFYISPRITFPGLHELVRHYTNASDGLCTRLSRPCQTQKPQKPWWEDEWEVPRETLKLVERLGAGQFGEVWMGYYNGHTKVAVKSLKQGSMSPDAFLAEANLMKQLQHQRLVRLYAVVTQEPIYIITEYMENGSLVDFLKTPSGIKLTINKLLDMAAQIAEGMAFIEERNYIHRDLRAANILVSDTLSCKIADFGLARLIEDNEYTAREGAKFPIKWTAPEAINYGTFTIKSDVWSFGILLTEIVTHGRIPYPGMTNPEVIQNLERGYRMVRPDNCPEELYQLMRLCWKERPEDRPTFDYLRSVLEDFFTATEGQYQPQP

[11] = target: Calcium/calmodulin-dependent protein kinase type IV (Homo sapiens, UniProt Q16566); experiment: Inhibition of CAMK4 (unknown origin)
Calcium/calmodulin-dependent protein kinase type IV, sequence (Q16566 whole entry): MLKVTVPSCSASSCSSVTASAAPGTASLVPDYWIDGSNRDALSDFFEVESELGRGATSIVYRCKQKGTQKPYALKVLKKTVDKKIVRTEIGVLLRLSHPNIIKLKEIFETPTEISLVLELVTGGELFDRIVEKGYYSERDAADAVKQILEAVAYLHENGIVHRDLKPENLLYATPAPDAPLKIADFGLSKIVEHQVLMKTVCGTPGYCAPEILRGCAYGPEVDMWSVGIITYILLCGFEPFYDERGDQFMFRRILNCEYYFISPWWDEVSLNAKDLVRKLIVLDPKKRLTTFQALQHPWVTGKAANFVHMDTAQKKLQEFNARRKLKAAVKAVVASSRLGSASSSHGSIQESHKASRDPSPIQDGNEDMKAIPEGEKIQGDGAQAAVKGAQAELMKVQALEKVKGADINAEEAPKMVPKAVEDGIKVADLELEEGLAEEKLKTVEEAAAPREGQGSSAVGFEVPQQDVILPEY

[12] = target: Testis-specific serine/threonine-protein kinase 2 (Homo sapiens, UniProt Q96PF2); experiment: Inhibition of TSSK2 (unknown origin)
Testis-specific serine/threonine-protein kinase 2, sequence (Q96PF2 whole entry): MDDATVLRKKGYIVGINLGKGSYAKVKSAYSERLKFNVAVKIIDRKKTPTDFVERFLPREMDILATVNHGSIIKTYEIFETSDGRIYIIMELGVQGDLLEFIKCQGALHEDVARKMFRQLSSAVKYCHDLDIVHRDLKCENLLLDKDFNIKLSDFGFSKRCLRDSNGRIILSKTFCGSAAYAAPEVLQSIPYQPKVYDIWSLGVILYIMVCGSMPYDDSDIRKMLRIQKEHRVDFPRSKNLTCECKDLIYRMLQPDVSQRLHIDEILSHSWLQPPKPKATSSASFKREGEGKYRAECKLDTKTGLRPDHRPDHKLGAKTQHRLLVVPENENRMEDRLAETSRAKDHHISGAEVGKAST

[13] = target: Serine/threonine-protein kinase 3 (Homo sapiens, UniProt Q13188); experiment: Inhibition of MST2 (unknown origin)
[14] = target: Interleukin-1 receptor-associated kinase 4 (Homo sapiens, UniProt Q9NWZ3); experiment: Inhibition of IRAK4 (unknown origin)
[15] = target: Mitogen-activated protein kinase 1 (Homo sapiens, UniProt P28482); experiment: Inhibition of ERK2 (unknown origin)
Mitogen-activated protein kinase 1, sequence (P28482 whole entry): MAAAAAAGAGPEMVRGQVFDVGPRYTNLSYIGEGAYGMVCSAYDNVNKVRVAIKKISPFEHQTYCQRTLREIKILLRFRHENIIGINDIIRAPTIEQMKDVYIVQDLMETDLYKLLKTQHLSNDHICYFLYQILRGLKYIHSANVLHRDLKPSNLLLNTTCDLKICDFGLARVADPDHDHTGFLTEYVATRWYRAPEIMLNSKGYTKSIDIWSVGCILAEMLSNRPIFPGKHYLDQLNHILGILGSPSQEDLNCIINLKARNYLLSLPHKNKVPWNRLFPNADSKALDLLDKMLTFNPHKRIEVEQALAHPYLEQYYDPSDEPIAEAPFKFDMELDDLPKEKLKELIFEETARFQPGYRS

[16] = target: Receptor-type tyrosine-protein kinase FLT3 (Homo sapiens, UniProt P36888); experiment: Inhibition of FLT3 (unknown origin)
Receptor-type tyrosine-protein kinase FLT3, sequence (P36888 whole entry): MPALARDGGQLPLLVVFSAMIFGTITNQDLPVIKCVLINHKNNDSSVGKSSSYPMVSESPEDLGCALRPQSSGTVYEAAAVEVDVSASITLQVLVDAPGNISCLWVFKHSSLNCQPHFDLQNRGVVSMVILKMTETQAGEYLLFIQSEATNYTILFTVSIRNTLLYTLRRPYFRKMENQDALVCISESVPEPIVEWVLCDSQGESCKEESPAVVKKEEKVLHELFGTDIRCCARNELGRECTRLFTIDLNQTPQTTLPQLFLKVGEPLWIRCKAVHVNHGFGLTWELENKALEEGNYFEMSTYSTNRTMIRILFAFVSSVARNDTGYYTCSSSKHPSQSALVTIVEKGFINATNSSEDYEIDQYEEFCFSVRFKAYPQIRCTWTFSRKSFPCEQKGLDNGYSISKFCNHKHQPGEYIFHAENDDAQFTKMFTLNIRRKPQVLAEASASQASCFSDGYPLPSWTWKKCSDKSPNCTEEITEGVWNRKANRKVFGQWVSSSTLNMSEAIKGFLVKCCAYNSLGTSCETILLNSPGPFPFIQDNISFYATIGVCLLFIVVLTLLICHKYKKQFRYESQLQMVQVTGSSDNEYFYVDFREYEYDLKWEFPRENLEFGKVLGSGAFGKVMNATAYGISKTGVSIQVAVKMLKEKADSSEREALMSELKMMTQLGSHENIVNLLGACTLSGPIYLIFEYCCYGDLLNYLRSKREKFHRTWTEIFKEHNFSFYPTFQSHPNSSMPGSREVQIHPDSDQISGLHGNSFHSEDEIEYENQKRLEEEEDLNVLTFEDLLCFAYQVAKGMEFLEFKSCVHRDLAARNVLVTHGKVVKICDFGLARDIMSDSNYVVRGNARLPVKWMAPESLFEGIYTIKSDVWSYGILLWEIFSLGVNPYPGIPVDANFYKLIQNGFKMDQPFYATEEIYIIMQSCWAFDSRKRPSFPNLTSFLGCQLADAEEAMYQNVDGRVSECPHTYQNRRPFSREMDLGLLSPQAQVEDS

[17] = target: Serine/threonine-protein kinase Nek2 (Homo sapiens, UniProt P51955); experiment: Inhibition of NEK2 (unknown origin)
Serine/threonine-protein kinase Nek2, sequence (P51955 whole entry): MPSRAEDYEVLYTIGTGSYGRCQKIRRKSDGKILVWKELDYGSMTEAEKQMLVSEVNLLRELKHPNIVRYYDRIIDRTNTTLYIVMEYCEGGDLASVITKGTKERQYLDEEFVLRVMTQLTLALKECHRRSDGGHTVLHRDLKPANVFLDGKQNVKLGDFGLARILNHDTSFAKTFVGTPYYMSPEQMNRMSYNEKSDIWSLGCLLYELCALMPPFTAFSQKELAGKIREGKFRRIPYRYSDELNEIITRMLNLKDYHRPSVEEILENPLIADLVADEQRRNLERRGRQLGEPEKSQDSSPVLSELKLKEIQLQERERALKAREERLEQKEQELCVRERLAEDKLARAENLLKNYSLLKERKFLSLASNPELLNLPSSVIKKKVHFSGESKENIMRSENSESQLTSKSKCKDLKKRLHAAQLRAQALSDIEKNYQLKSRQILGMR

[18] = target: Serine/threonine-protein kinase PLK3 (Homo sapiens, UniProt Q9H4B4); experiment: Inhibition of PLK3 (unknown origin)
[19] = target: Casein kinase I isoform delta (Homo sapiens, UniProt P48730); experiment: Inhibition of CSNK1D (unknown origin)
[20] = target: Hepatocyte growth factor receptor (Homo sapiens, UniProt P08581); experiment: Inhibition of MET (unknown origin)
Ephrin type-B receptor 4 = Ephrin type-B receptor 4 (Homo sapiens, UniProt P54760); experiment: Inhibition of EPHB4 (unknown origin)
[21] = target: RAC-alpha serine/threonine-protein kinase (Homo sapiens, UniProt P31749); experiment: Inhibition of AKT1 (unknown origin)
RAC-alpha serine/threonine-protein kinase, sequence (P31749 whole entry): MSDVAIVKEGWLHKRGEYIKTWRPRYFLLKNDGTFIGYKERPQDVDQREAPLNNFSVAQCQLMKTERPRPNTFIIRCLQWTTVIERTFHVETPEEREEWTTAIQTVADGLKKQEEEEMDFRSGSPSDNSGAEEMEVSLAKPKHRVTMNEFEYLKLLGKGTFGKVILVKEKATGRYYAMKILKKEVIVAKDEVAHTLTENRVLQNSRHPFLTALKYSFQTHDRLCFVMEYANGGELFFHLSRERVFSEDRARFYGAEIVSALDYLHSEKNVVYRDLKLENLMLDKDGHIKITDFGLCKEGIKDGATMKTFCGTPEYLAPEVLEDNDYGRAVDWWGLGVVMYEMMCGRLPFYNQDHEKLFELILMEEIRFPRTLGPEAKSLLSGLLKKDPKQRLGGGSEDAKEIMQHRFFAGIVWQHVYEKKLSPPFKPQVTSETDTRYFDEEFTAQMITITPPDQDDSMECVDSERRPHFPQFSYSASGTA

[22] = Toxicity in human SW1353 cells; format: cell-based
THP-1 = experiment: cells; settings: Homo sapiens
Description: Antiinflammatory activity in human THP1 cells assessed as inhibition of LPS-induced TNFalpha production treated 30 mins before LPS addition measured after 3 hrs by ELISA

Structure (SMILES): O=C1c2oc(-c3ccc(Cl)cc3)cc2Cc2cc(N3CCNCC3)ccc2N1Cc1ccccc1-c1cccnc1
- IC50 [1]: > 30 µM
- IC50 [2]: > 30 µM
- IC50 [3]: 11 µM
- IC50 [4]: > 30 µM
- IC50 [5]: > 18 µM
- IC50 [6]: 10 µM
- IC50 [7]: 22 nM
- IC50 [8]: 24 µM
- IC50 [9]: > 20 µM
- IC50 [10]: > 19 µM
- IC50 [11]: 27 µM
- IC50 [12]: > 30 µM
- IC50 [13]: > 12 µM
- IC50 [14]: 26 µM
- IC50 [15]: > 30 µM
- IC50 [16]: > 30 µM
- IC50 [17]: 13 µM
- IC50 [18]: > 30 µM
- IC50 [19]: > 30 µM
- IC50 [20]: > 30 µM
- IC50 (Ephrin type-B receptor 4): > 30 µM
- IC50 [21]: 16 µM

Structure (SMILES): O=C1c2oc(-c3ccc(Cl)cc3)cc2Cc2cc(N3CCNCC3)ccc2N1Cc1ccccn1
- CC50 [22]: 17.4 µM

Structure (SMILES): N#Cc1ccc(-c2cc3c(o2)C(=O)N(Cc2ccccc2-c2cncnc2)c2ccc(N4CCNCC4)cc2C3)cc1
- EC50 (THP-1): 150 nM
